Source: article PMC8708390, “Fatty Acid Modification of the Anticancer Peptide LVTX-9 to Enhance Its Cytotoxicity against Malignant Melanoma Cells” (Toxins, 2021)
Where no end group is shown, it is not given here.

Tests used:
[1] = test system: B16-F10 tumor spheroids; experiment: Toxicity in 3D tumor spheroids; type: cell-based, mouse; conditions: 50 or 25 μM, RPMI-1640 with 10% serum, 3 days
Protocol: To further study the toxicity of LVTX-9 and LVTX-9-C18 in vitro, B16-F10 tumor spheroids, as 3D tumor models, were cultured according to protocols in the literature. Briefly, B16-F10 cells were seeded into an ultra-low attachment, 96-well, round-bottom plate (Corning) and cultured at 37 °C for 3–4 days. Then, the B16-F10 tumor spheroids were treated with 50 or 25 μM of LVTX-9 and 20 or 10 μM of LVTX-9-C18 in the RPMI-1640 supplied with 10% serum for 3 days. Subsequently, images were taken on days 0 and 3, and the cell viability was measured using a CellTiter-Glo 3D Cell Viability Assay (G9683).

[2] = test system: B16-F10 cells; experiment: LDH leakage assay; type: cell-based, mouse; conditions: 25 μM, 24 h, absorbance 490 nm, n = 3
Protocol: At first, the B16-F10 cells were cultured in 96-well plates for 24 h at approximately 2 × 10^3 cells/well. Subsequently, the cells were treated for 24 h with LVTX-9 or LVTX-9-C18 with a series of concentration gradients. LDH leakage detection was detected using an LDH Cytotoxicity Assay Kit according to the manufacturer’s instructions (Beyotime, Shanghai, China. C0017). The absorption was measured using an Absorbance Microplate Reader (BioTek Instruments) at 490 nm. The LDH release (%) of peptides was calculated by GraphPad prism 5.0.

[3] = test system: B16-F10 cells; experiment: Colony formation assay; type: cell-based, mouse; conditions: 10 μM, 7 days, crystal violet, mean ± SD, n = 3, control group 51 ± 12.0
Protocol: To detect the proliferation of B16-F10 cells treated with LVTX-9 and LVTX-9-C18 at low concentrations, digested cells were counted using a Cellometer K2 and seeded into a 12-well plate with approximately 100 cells per well. After 36 h, cells were treated with LVTX-9 (10 μM) and LVTX-9-C18 (1 μM), then incubated for 7 days at 37 °C in a humidified 5% CO2 atmosphere. Visible colonies were stained with 0.5% crystal violet and photographically recorded. The colony formation rates were calculated, and curves were manufactured by GraphPad prism 5.0.

[4] = Dynamic light scattering (hydrodynamic size, PDI, zeta potential); type: physicochemical; conditions: 100 µM in ultrapure water, 25 °C, repeated three times
Protocol: Dynamic light scattering (DLS) of Zetasizer Nano ZSP (Malvern Instruments, Malvern, UK) apparatus was used to determine the hydrodynamic size and zeta potential of LVTX-9 and LVTX-9-C18. The peptides concentrations were diluted to 100 µM with ultrapure water with a final volume of 1 mL. The procedure ran at 25 °C, with each experiment repeated three times. The secondary structures of LVTX-9 and LVTX-9-C18 were determined to be in line with the previous protocol. The peptide concentrations were then diluted to 100 µM with ultrapure water and 100 mM of SDS was added in a final volume of 250 μL. The procedure was carried out at 25 °C. CD spectra were recorded between 180 nm and 280 nm on a Jasco J-815 CD spectrometer.

ASIGALIQKAIALIKAKAA-NH2 (C-terminus assumed) [LVTX-9]
growth of B16-F10 tumor spheroids at 50 or 25 μM [1]: gradually grew
LDH release at 25 μM [2]: ~ 2%
colony number at 10 μM [3]: 58 ± 11.4
PDI (hydrodynamic size, DLS) [4]: 0.65 ± 0.0481
